“Also recorded” adds a separate entry of the source. Marks after values point to notes of the source that are not given here.
Legend:
[1] = target: T1, Sphingobacterium multivorum SPT (Sphingobacterium multivorum, UniProt A7BFV6); assay: Steady-state kinetic analysis of SPT (LCB production from amino acid and PalCoA, quantified by TLC fluorescence); format: biochemical; conditions: 1 mM PalCoA; for Kmapp / kcatapp: mean ± SD
T1 construct: harboring the plasmid that express the full length of S. multivorum SPT; made in house; host or cells: Escherichia coli BL21 (DE3) pLysS
Protocol: The assay was performed as follows; 200 mM of amino acid (glycine, L-Ala, L-Ser, L-Hse, or L-Thr) was incubated with 1 mM PalCoA and 100 μM SPT in 100 μl of 100 mM potassium phosphate, pH 7.5, for 60 min at 37 °C. The reactions were terminated by addition of the equal volume of 2 N ammonia. Lipids were extracted by successive addition and mixing of 750 μl of chloroform/methanol (1:2, v/v), 250 μl of chloroform, and 250 μl of 1% KCl. Phases were separated by centrifugation, and the organic phase was recovered. The aqueous phase was reextracted with 200 μl of chloroform, and, after centrifugation, the organic phase was combined with the organic phase from the first extraction. The organic phase was washed with water/chloroform/methanol (47:48:3, v/v), dried, and suspended in chloroform/methanol (2:1, v/v). The extracted lipids were resolved by normal-phase TLC on Silica Gel 60 high-performance TLC plates (Merck) with chloroform/methanol/2 N ammonia (40:10:1, v/v) or chloroform/methanol/triethanol amine (95:5:10, v/v) and visualized by spraying with ninhydrin reagent followed by gentle heating. For the quantitative analysis, the UV-fluorescence intensities of the reaction products on TLC plates were visualized by a Fusion chemiluminescence imaging system using a UV-light box and analyzed by a FUSION Capt software (VILBER; https://www.garvan.org.au/research/capabilities/molecular-genetics/ documents/fusion_manual_2016.pdf).
Steady-state kinetic parameters were determined by varying the concentrations of the amino acid substrate in the presence of 1 mM PalCoA in 100 μl of 100 mM potassium phosphate, pH 7.5, at 37 °C. The concentration of SPT and the incubation time were 1 μM and 10 min for L-Ser; 5 μM and 10 min for L-Hse; 20 μM and 30 min for L-Ala; and 100 μM and 120 min for Gly. The reaction termination, lipid extraction, TLC analysis, and quantification of the reaction products on TLC plates were described above. The apparent velocities (min^–1) versus amino acid concentrations (mM) plots were fitted to the Michaelis–Menten equation, v = Vmax[S]/(Km+[S]), by nonlinear regression using the Igor Pro 6.37 (https://www.wavemetrics.com/forum/news-and-announcements/igor-pro-637-released). software (Wave Matrix Inc.) to determine the apparent kinetic parameters, kcatapp and Kmapp , of SPT for each amino acid substrate.
The reactions were carried out in the presence of 1 mM PalCoA as described in Experimental procedures. Apparent rate constants, obtained by dividing the rate of the LCB production by the concentration of the enzyme, were plotted against concentrations of amino acid substrate, L-Ser (A), L-Hse (B), L-Ala (C), or glycine (D). The plots were fitted to the equation of the Michaelis–Menten mechanism, v = Vmax[S]/(Km+[S]), by nonlinear regression using the software Igor Pro (ver 6.37, WaveMetrics, Lake Oswego, OR), and the Kmappand kcatapp of SPT for each amino acid substrate were calculated. Solid line represents a theoretical curve based on the above equation. Each data point is a mean with the error bar showing standard deviation from at least three independent experiments.

[2] = target: T1, Sphingobacterium multivorum SPT; assay: TLC analysis of LCB formation from amino acids by SPT (ninhydrin); format: biochemical; conditions: 200 mM amino acid, 1 mM PalCoA, 100 μM SPT, pH 7.5, 60 min, 37 °C
Text: Reaction products were extracted with solvents and separated by TLC. […] Each LCB product was quantified by the fluorescence intensity based on the standard curve obtained by using the corresponding authentic compound.

[3] = target: T1, Sphingobacterium multivorum SPT; assay: Spectroscopic titration of SPT with amino acids (dissociation constants, external aldimine formation); format: binding; conditions: 10 μM SPT, pH 7.5, 25 °C
Protocol: Next, binding of the amino acids to the S. multivorum SPT was examined by spectroscopic titration.
Figure 3 Spectroscopic analysis of the reaction of the Sphingobacterium multivorum SPT with L-Ala or L-Thr.A, the UV/vis absorption spectra of SPT (10 μM) in the presence of 800 mM L-Ala were measured at time intervals of 10 min for 500 min. Each line numbered 1 to 12 corresponds to the spectrum at 0, 10, 20, 30, 40, 50, 60, 80, 90, 110, 150, and 500 min, respectively, after SPT was mixed with L-Ala. […] B, spectroscopic titration of SPT with L-Ala. Absorbance at 420 nm in the presence of 0, 50, 100, 200, 400, and 600 mM L-Ala at 0 min was measured, and apparent molar absorptivities at 420 nm were plotted against L-Ala concentrations. […] C, absorption spectra of SPT (10 μM) in the presence of 0, 1.3, 3.7, 7.4, 12.2, 18.1, 24.9, 32.7, 41.3, and 51.6 mM L-Thr (lines 1–10, respectively). […] SPT, serine palmitoyltransferase.
The titration assay was carried out by using 10 μM SPT in 100 mM potassium phosphate and 0.1 mM EDTA, pH 7.5, at 25 °C. The changes of the 422 nm absorption intensities of SPT upon addition of amino acids were plotted against the final concentrations of the amino acids, and the Kd values were calculated by fitting to a hyperbolic saturation curve using Igor Pro 6.37. software. UV/vis spectra of SPT were recorded with a Hitachi U-3310 spectrophotometer.

[4] = target: T1, Sphingobacterium multivorum SPT; assay: UV/vis time course of conversion of PLP and L-Ala to PMP and pyruvate by SPT (abortive transamination); format: biochemical
Protocol: Next, binding of the amino acids to the S. multivorum SPT was examined by spectroscopic titration. […] Therefore, the absorption at 420 nm just after SPT was mixed with L-Ala was measured and plotted against concentrations of L-Ala (Fig. 3B), and the Kd value for L-Ala was estimated as 65 ± 10 mM (Table 1). For the other amino acids, only spectral changes corresponding to the external aldimine formation between PLP and the amino acids were observed, and side reactions such as PMP formation were not detected.
Figure 3 Spectroscopic analysis of the reaction of the Sphingobacterium multivorum SPT with L-Ala or L-Thr.A, the UV/vis absorption spectra of SPT (10 μM) in the presence of 800 mM L-Ala were measured at time intervals of 10 min for 500 min. Each line numbered 1 to 12 corresponds to the spectrum at 0, 10, 20, 30, 40, 50, 60, 80, 90, 110, 150, and 500 min, respectively, after SPT was mixed with L-Ala. […] The lines represent theoretical fits to a single-exponential equation ( y=A×e^−k⋅t ), where k is 0.029 ± 0.00024 min^–1. B, spectroscopic titration of SPT with L-Ala. Absorbance at 420 nm in the presence of 0, 50, 100, 200, 400, and 600 mM L-Ala at 0 min was measured, and apparent molar absorptivities at 420 nm were plotted against L-Ala concentrations. […]

[5] = 100 mM potassium phosphate pH 7.5, 37 °C
[6] = 100 mM potassium phosphate, 0.1 mM EDTA, absorption at 422 nm, mean ± SD
[7] = reaction mixture supplemented with 0.1 mM PLP, pH 7.5, 37 °C

T1 sequence (A7BFV6 whole entry): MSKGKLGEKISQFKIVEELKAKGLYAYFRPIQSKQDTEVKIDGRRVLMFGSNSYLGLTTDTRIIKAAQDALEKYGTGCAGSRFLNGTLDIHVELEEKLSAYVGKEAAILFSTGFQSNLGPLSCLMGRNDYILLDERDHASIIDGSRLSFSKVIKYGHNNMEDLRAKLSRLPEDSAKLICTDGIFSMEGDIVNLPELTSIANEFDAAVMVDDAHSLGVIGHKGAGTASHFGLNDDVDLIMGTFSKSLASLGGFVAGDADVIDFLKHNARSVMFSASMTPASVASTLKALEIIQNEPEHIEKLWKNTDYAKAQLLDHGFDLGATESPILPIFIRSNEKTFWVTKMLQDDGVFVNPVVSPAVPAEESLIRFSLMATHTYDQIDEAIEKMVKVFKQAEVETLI

SMILES	Kmapp, fold larger than that for L-Ser [1] [fold]	kcatapp, fold smaller than that for L-Ser [1]	Kmapp [1, 5] [mM]	kcatapp [1, 5] [min^–1]	kcatapp/Kmapp (apparent catalytic efficiency) ([1]; pH 7.5, 37 °C) [min^–1 mM^–1]	LCB formation (reaction product on TLC) [2]	Kd [3, 6] [mM]	half-life τ1/2 of conversion of PLP and L-Ala to PMP and pyruvate ([4]; SPT (10 μM) incubated with 800 mM L-Ala) [min]	rate constant k of single-exponential change in absorption at 420 nm and 328 nm ([4]; SPT (10 μM), 800 mM L-Ala) [min^–1]	Kmapp [1, 7]	kcatapp [1, 7]	Kd ([3]; absorption intensity at 424 nm immediately after SPT was mixed with L-Ala (text: 420 nm)) [mM]
NCC(=O)O [Gly, glycine]	21	36,000 fold	77 ± 8.1	0.008 ± 0.002	0.0001	converted to corresponding LCBs	71 ± 5.5					
C[C@H](N)C(=O)O [L-Ala, L-alanine]					0.0037	converted to corresponding LCBs		24.0 ± 0.2	0.029 ± 0.00024	110 ± 9.0 ^c mM	0.42 ± 0.011 ^c min^–1	65 ± 10
N[C@@H](CCO)C(=O)O [L-Hse, L-homoserine]			82 ± 14	4.5 ± 0.28	0.055	converted to corresponding LCBs	3.6 ± 0.2					
N[C@@H](CO)C(=O)O [L-Ser, L-serine]			3.6 ± 0.87	13 ± 1.0	3.6		0.45 ± 0.05					
C[C@@H](O)[C@H](N)C(=O)O [L-Thr, L-threonine]	23					not detected; also recorded: nonproductive ligand	8.2 ± 1					
NC(CO)(CO)CO [Tris, tris(hydroxymethyl)aminomethane]							40 ± 5.6					

Source: article PMC10196870, “Structural insights into the substrate recognition of serine palmitoyltransferase from Sphingobacterium multivorum” (The Journal of Biological Chemistry, 2023)
